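Five concentrations, 48 hours, 96-well plates. At the TGI there is no net growth.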
Key:
Experiment in all cases: growth of human tumour cells (NCI), 48 h
786-0 renal = tested on: 786-0 renal
A498 renal = tested on: A498 renal
A549 NSCLC = tested on: A549 NSCLC
ACHN renal = tested on: ACHN renal
CAKI-1 renal = tested on: CAKI-1 renal
CCRF-CEM leukemia = tested on: CCRF-CEM leukemia
COLO 205 colon = tested on: COLO 205 colon
EKVX NSCLC = tested on: EKVX NSCLC
HCC-2998 colon = tested on: HCC-2998 colon
HCT-116 colon = tested on: HCT-116 colon
HCT-15 colon = tested on: HCT-15 colon
HL-60(TB) leukemia = tested on: HL-60(TB) leukemia
HOP-62 NSCLC = tested on: HOP-62 NSCLC
HS 578T breast = tested on: HS 578T breast
HT29 colon = tested on: HT29 colon
IGROV1 ovarian = tested on: IGROV1 ovarian
K-562 leukemia = tested on: K-562 leukemia
KM12 colon = tested on: KM12 colon
LOX IMVI melanoma = tested on: LOX IMVI melanoma
M14 melanoma = tested on: M14 melanoma
MALME-3M melanoma = tested on: MALME-3M melanoma
MCF7 breast = tested on: MCF7 breast
MDA-MB-231 breast = tested on: MDA-MB-231 breast
MDA-MB-435 = tested on: MDA-MB-435
MDA-N = tested on: MDA-N
MOLT-4 leukemia = tested on: MOLT-4 leukemia
NCI-H226 lung = tested on: NCI-H226 lung
NCI-H23 lung = tested on: NCI-H23 lung
NCI-H460 lung = tested on: NCI-H460 lung
NCI-H522 lung = tested on: NCI-H522 lung
NCI/ADR-RES ovarian = tested on: NCI/ADR-RES ovarian
OVCAR-3 ovarian = tested on: OVCAR-3 ovarian
OVCAR-4 ovarian = tested on: OVCAR-4 ovarian
OVCAR-5 ovarian = tested on: OVCAR-5 ovarian
OVCAR-8 ovarian = tested on: OVCAR-8 ovarian
PC-3 prostate = tested on: PC-3 prostate
RPMI-8226 leukemia = tested on: RPMI-8226 leukemia
RXF 393 renal = tested on: RXF 393 renal
SF-295 CNS = tested on: SF-295 CNS
SF-539 CNS = tested on: SF-539 CNS
SK-MEL-2 melanoma = tested on: SK-MEL-2 melanoma
SK-MEL-5 melanoma = tested on: SK-MEL-5 melanoma
SN12C renal = tested on: SN12C renal
SNB-19 CNS = tested on: SNB-19 CNS
SNB-75 CNS = tested on: SNB-75 CNS
SR leukemia = tested on: SR leukemia
SW-620 colon = tested on: SW-620 colon
T-47D breast = tested on: T-47D breast
TK-10 renal = tested on: TK-10 renal
U251 CNS = tested on: U251 CNS
UACC-257 melanoma = tested on: UACC-257 melanoma
UACC-62 melanoma = tested on: UACC-62 melanoma
UO-31 renal = tested on: UO-31 renal
DU-145 prostate = tested on: DU-145 prostate
HOP-92 NSCLC = tested on: HOP-92 NSCLC
SF-268 CNS = tested on: SF-268 CNS
SK-MEL-28 melanoma = tested on: SK-MEL-28 melanoma
BT-549 breast = tested on: BT-549 breast
SK-OV-3 ovarian = tested on: SK-OV-3 ovarian

C1CCCN(NC2=NCCO2)CC1
TGI (786-0 renal): > 100 µM
TGI (A498 renal): > 100 µM
TGI (A549 NSCLC): > 100 µM
TGI (ACHN renal): > 100 µM
TGI (CAKI-1 renal): > 100 µM
TGI (CCRF-CEM leukemia): > 100 µM
TGI (COLO 205 colon): > 100 µM
TGI (EKVX NSCLC): > 100 µM
TGI (HCC-2998 colon): > 100 µM
TGI (HCT-116 colon): > 100 µM
TGI (HCT-15 colon): > 100 µM
TGI (HL-60(TB) leukemia): > 100 µM
TGI (HOP-62 NSCLC): > 100 µM
TGI (HS 578T breast): > 100 µM
TGI (HT29 colon): > 100 µM
TGI (IGROV1 ovarian): > 100 µM
TGI (K-562 leukemia): > 100 µM
TGI (KM12 colon): > 100 µM
TGI (LOX IMVI melanoma): > 100 µM
TGI (M14 melanoma): > 100 µM
TGI (MALME-3M melanoma): > 100 µM
TGI (MCF7 breast): > 100 µM
TGI (MDA-MB-231 breast): > 100 µM
TGI (MDA-MB-435): > 100 µM
TGI (MDA-N): > 100 µM
TGI (MOLT-4 leukemia): > 100 µM
TGI (NCI-H226 lung): > 100 µM
TGI (NCI-H23 lung): > 100 µM
TGI (NCI-H460 lung): > 100 µM
TGI (NCI-H522 lung): > 100 µM
TGI (NCI/ADR-RES ovarian): > 100 µM
TGI (OVCAR-3 ovarian): > 100 µM
TGI (OVCAR-4 ovarian): > 100 µM
TGI (OVCAR-5 ovarian): > 100 µM
TGI (OVCAR-8 ovarian): > 100 µM
TGI (PC-3 prostate): > 100 µM
TGI (RPMI-8226 leukemia): > 100 µM
TGI (RXF 393 renal): > 100 µM
TGI (SF-295 CNS): > 100 µM
TGI (SF-539 CNS): > 100 µM
TGI (SK-MEL-2 melanoma): > 100 µM
TGI (SK-MEL-5 melanoma): > 100 µM
TGI (SN12C renal): > 100 µM
TGI (SNB-19 CNS): > 100 µM
TGI (SNB-75 CNS): > 100 µM
TGI (SR leukemia): > 100 µM
TGI (SW-620 colon): > 100 µM
TGI (T-47D breast): > 100 µM
TGI (TK-10 renal): > 100 µM
TGI (U251 CNS): > 100 µM
TGI (UACC-257 melanoma): > 100 µM
TGI (UACC-62 melanoma): > 100 µM
TGI (UO-31 renal): > 100 µM

O=C(O)CCCCC1CCSS1 (configuration not stated)
TGI (786-0 renal): > 100 µM
TGI (A549 NSCLC): > 100 µM
TGI (ACHN renal): > 100 µM
TGI (CAKI-1 renal): > 100 µM
TGI (CCRF-CEM leukemia): > 100 µM
TGI (COLO 205 colon): > 100 µM
TGI (DU-145 prostate): > 100 µM
TGI (EKVX NSCLC): > 100 µM
TGI (HCC-2998 colon): > 100 µM
TGI (HCT-116 colon): > 100 µM
TGI (HCT-15 colon): > 100 µM
TGI (HL-60(TB) leukemia): > 100 µM
TGI (HOP-62 NSCLC): > 100 µM
TGI (HOP-92 NSCLC): > 100 µM
TGI (HS 578T breast): > 100 µM
TGI (HT29 colon): > 100 µM
TGI (IGROV1 ovarian): > 100 µM
TGI (K-562 leukemia): > 100 µM
TGI (KM12 colon): > 100 µM
TGI (LOX IMVI melanoma): > 100 µM
TGI (M14 melanoma): > 100 µM
TGI (MALME-3M melanoma): > 100 µM
TGI (MCF7 breast): > 100 µM
TGI (MDA-MB-231 breast): > 100 µM
TGI (MDA-MB-435): > 100 µM
TGI (MDA-N): > 100 µM
TGI (MOLT-4 leukemia): > 100 µM
TGI (NCI-H226 lung): > 100 µM
TGI (NCI-H23 lung): > 100 µM
TGI (NCI-H460 lung): > 100 µM
TGI (NCI-H522 lung): > 100 µM
TGI (NCI/ADR-RES ovarian): > 100 µM
TGI (OVCAR-3 ovarian): > 100 µM
TGI (OVCAR-4 ovarian): > 100 µM
TGI (OVCAR-5 ovarian): > 100 µM
TGI (OVCAR-8 ovarian): > 100 µM
TGI (PC-3 prostate): > 100 µM
TGI (RPMI-8226 leukemia): > 100 µM
TGI (SF-268 CNS): > 100 µM
TGI (SF-295 CNS): > 100 µM
TGI (SF-539 CNS): > 100 µM
TGI (SK-MEL-2 melanoma): > 100 µM
TGI (SK-MEL-28 melanoma): > 100 µM
TGI (SK-MEL-5 melanoma): > 100 µM
TGI (SNB-19 CNS): > 100 µM
TGI (SNB-75 CNS): > 100 µM
TGI (SR leukemia): > 100 µM
TGI (SW-620 colon): > 100 µM
TGI (T-47D breast): > 100 µM
TGI (TK-10 renal): > 100 µM
TGI (U251 CNS): > 100 µM
TGI (UACC-257 melanoma): > 100 µM
TGI (UO-31 renal): > 100 µM

COc1ccc(C)cc1NC(=S)C#N
TGI (786-0 renal): > 100 µM
TGI (A498 renal): > 100 µM
TGI (A549 NSCLC): > 100 µM
TGI (ACHN renal): > 100 µM
TGI (BT-549 breast): > 100 µM
TGI (CAKI-1 renal): > 100 µM
TGI (CCRF-CEM leukemia): > 100 µM
TGI (COLO 205 colon): > 100 µM
TGI (DU-145 prostate): > 100 µM
TGI (HCC-2998 colon): > 100 µM
TGI (HCT-116 colon): > 100 µM
TGI (HCT-15 colon): > 100 µM
TGI (HL-60(TB) leukemia): > 100 µM
TGI (HOP-62 NSCLC): > 100 µM
TGI (HOP-92 NSCLC): > 100 µM
TGI (HT29 colon): > 100 µM
TGI (K-562 leukemia): > 100 µM
TGI (KM12 colon): > 100 µM
TGI (LOX IMVI melanoma): > 100 µM
TGI (M14 melanoma): > 100 µM
TGI (MCF7 breast): > 100 µM
TGI (MDA-MB-231 breast): > 100 µM
TGI (MDA-MB-435): > 100 µM
TGI (MDA-N): > 100 µM
TGI (NCI-H226 lung): > 100 µM
TGI (NCI-H23 lung): > 100 µM
TGI (NCI/ADR-RES ovarian): > 100 µM
TGI (OVCAR-3 ovarian): > 100 µM
TGI (OVCAR-5 ovarian): > 100 µM
TGI (OVCAR-8 ovarian): > 100 µM
TGI (PC-3 prostate): > 100 µM
TGI (RPMI-8226 leukemia): > 100 µM
TGI (RXF 393 renal): > 100 µM
TGI (SF-268 CNS): > 100 µM
TGI (SF-295 CNS): > 100 µM
TGI (SF-539 CNS): > 100 µM
TGI (SK-MEL-2 melanoma): > 100 µM
TGI (SK-MEL-28 melanoma): > 100 µM
TGI (SK-MEL-5 melanoma): > 100 µM
TGI (SK-OV-3 ovarian): > 100 µM
TGI (SN12C renal): > 100 µM
TGI (SNB-19 CNS): > 100 µM
TGI (SNB-75 CNS): > 100 µM
TGI (SW-620 colon): > 100 µM
TGI (T-47D breast): > 100 µM
TGI (TK-10 renal): > 100 µM
TGI (U251 CNS): > 100 µM
TGI (UACC-257 melanoma): > 100 µM
TGI (UACC-62 melanoma): > 100 µM

CC(=O)c1ccc(Nc2c3ccccc3nc3occc23)cc1
TGI (786-0 renal): 3.19 µM
TGI (A498 renal): 12.6 µM
TGI (A549 NSCLC): > 35.1 µM
TGI (ACHN renal): > 72.5 µM
TGI (BT-549 breast): > 100 µM
TGI (CAKI-1 renal): 4.68 µM
TGI (CCRF-CEM leukemia): 4.46 µM
TGI (COLO 205 colon): 0.136 µM
TGI (DU-145 prostate): 5.39 µM
TGI (EKVX NSCLC): > 45.9 µM
TGI (HCC-2998 colon): 0.794 µM
TGI (HCT-116 colon): > 34.7 µM
TGI (HCT-15 colon): > 42.8 µM
TGI (HL-60(TB) leukemia): < 0.01 µM
TGI (HOP-62 NSCLC): > 100 µM
TGI (HOP-92 NSCLC): 83.5 µM
TGI (HT29 colon): 0.402 µM
TGI (IGROV1 ovarian): 0.607 µM
TGI (K-562 leukemia): > 100 µM
TGI (KM12 colon): 1.59 µM
TGI (LOX IMVI melanoma): > 100 µM
TGI (M14 melanoma): 2.92 µM
TGI (MALME-3M melanoma): 29.4 µM
TGI (MCF7 breast): < 0.128 µM
TGI (MDA-MB-231 breast): 0.541 µM
TGI (MDA-MB-435): < 0.01 µM
TGI (MDA-N): < 0.01 µM
TGI (MOLT-4 leukemia): 32.2 µM
TGI (NCI-H226 lung): 45.2 µM
TGI (NCI-H23 lung): 17.1 µM
TGI (NCI-H460 lung): 0.453 µM
TGI (NCI-H522 lung): < 0.01 µM
TGI (OVCAR-5 ovarian): > 100 µM
TGI (OVCAR-8 ovarian): 7.01 µM
TGI (PC-3 prostate): > 100 µM
TGI (RPMI-8226 leukemia): 4.28 µM
TGI (RXF 393 renal): < 0.0216 µM
TGI (SF-268 CNS): 7.49 µM
TGI (SK-MEL-2 melanoma): 0.0645 µM
TGI (SK-MEL-28 melanoma): 50 µM
TGI (SK-MEL-5 melanoma): 3.91 µM
TGI (SK-OV-3 ovarian): 13.2 µM
TGI (SN12C renal): 56.4 µM
TGI (SNB-19 CNS): > 100 µM
TGI (SR leukemia): 18.5 µM
TGI (SW-620 colon): > 100 µM
TGI (T-47D breast): 32.8 µM
TGI (TK-10 renal): 15.7 µM
TGI (U251 CNS): > 4.64 µM
TGI (UACC-257 melanoma): 48.8 µM
TGI (UACC-62 melanoma): 10.7 µM
TGI (UO-31 renal): > 100 µM

— PubChem BioAssay (NCI)
